The values that follow come from ChEMBL document CHEMBL4420081, “Novel benzylamino substituted quinazolines and derivatives as sos1 inhibitors” (2018).

In assay [1] the test system is A549. As to the kind of experiment: Growth inhibition of human A549 cells grown under 3D anchorage-independent soft-agar conditions at 3330 nM incubated for 14 days by alamar blue dye based assay relative to control. In kind it is functional. Particulars: A549, 336 h, read-out: GI.
The subject of assay [2] is A549. Description: Growth inhibition of human A549 cells grown under 3D anchorage-independent soft-agar conditions at 164 nM incubated for 14 days by alamar blue dye based assay relative to control. The format is functional. As to conditions: A549, 336 h, read-out: GI. (In general: Resazurin is reduced to fluorescent resorufin, in cell work by metabolically active cells.)

The test system of assay [3] is A549. As to the kind of experiment: Growth inhibition of human A549 cells grown under 3D anchorage-independent soft-agar conditions at 370 nM incubated for 14 days by alamar blue dye based assay relative to control. The format is functional. As to conditions: A549, 336 h, read-out: GI.
For assay [4], the system named is A549. Description: Growth inhibition of human A549 cells grown under 3D anchorage-independent soft-agar conditions at 123 nM incubated for 14 days by alamar blue dye based assay relative to control. In kind it is functional. Particulars: A549, 336 h, read-out: GI.
In assay [5] the test system is A549. As to the kind of experiment: Growth inhibition of human A549 cells grown under 3D anchorage-independent soft-agar conditions at 1110 nM incubated for 14 days by alamar blue dye based assay relative to control. In kind it is functional. Particulars: A549, 336 h, read-out: GI.
Assay [6] has as its system NCI-H1792. As to the kind of experiment: Growth inhibition of human NCI-H1792 cells grown under 3D anchorage-independent soft-agar conditions at 123 nM incubated for 14 days by alamar blue dye based assay relative to control. The format is functional. As to conditions: NCI-H1792, 336 h, read-out: GI.
Assay [7] relates to SW900. Description: Growth inhibition of human SW900 cells grown under 3D anchorage-independent soft-agar conditions at 1110 nM incubated for 14 days by alamar blue dye based assay relative to control. As to conditions: SW900, 336 h, read-out: GI. The format is functional.
In assay [8] the test system is SW900. Description: Growth inhibition of human SW900 cells grown under 3D anchorage-independent soft-agar conditions at 123 nM incubated for 14 days by alamar blue dye based assay relative to control. The format is functional. Particulars: SW900, 336 h, read-out: GI.
Assay [9] concerns NCI-H1792. Description: Growth inhibition of human NCI-H1792 cells grown under 3D anchorage-independent soft-agar conditions at 370 nM incubated for 14 days by alamar blue dye based assay relative to control. As to conditions: NCI-H1792, 336 h, read-out: GI. In kind it is functional.
Assay [10] has as its system NCI-H1792. Description: Growth inhibition of human NCI-H1792 cells grown under 3D anchorage-independent soft-agar conditions at 164 nM incubated for 14 days by alamar blue dye based assay relative to control. In kind it is functional. As to conditions: NCI-H1792, 336 h, read-out: GI.
Assay [11] deals with SW900. As to the kind of experiment: Growth inhibition of human SW900 cells grown under 3D anchorage-independent soft-agar conditions at 370 nM incubated for 14 days by alamar blue dye based assay relative to control. The format is functional. As to conditions: SW900, 336 h, read-out: GI.
For assay [12], the system named is SW900. As to the kind of experiment: Growth inhibition of human SW900 cells grown under 3D anchorage-independent soft-agar conditions at 164 nM incubated for 14 days by alamar blue dye based assay relative to control. The format is functional. Particulars: SW900, 336 h, read-out: GI.
Assay [13] relates to SW900. As to the kind of experiment: Growth inhibition of human SW900 cells grown under 3D anchorage-independent soft-agar conditions at 3330 nM incubated for 14 days by alamar blue dye based assay relative to control. Particulars: SW900, 336 h, read-out: GI. In kind it is functional.
Assay [14] concerns NCI-H1792. Description: Growth inhibition of human NCI-H1792 cells grown under 3D anchorage-independent soft-agar conditions at 1110 nM incubated for 14 days by alamar blue dye based assay relative to control. The format is functional. Particulars: NCI-H1792, 336 h, read-out: GI.
The test system of assay [15] is NCI-H1792. As to the kind of experiment: Growth inhibition of human NCI-H1792 cells grown under 3D anchorage-independent soft-agar conditions at 3330 nM incubated for 14 days by alamar blue dye based assay relative to control. In kind it is functional. Particulars: NCI-H1792, 336 h, read-out: GI.
Assay [16] concerns NCI-H358. Description: Induction of apoptosis in human NCI-H358 cells grown under 3D anchorage-independent soft-agar conditions at grown under 3D anchorage-independent soft-agar conditions assessed as induction of PARP cleavage at 1 uM incubated for 24 to 72 hrs by mesoscale assay. In kind it is functional, cell-based.
The test system of assay [17] is A549. As to the kind of experiment: Induction of apoptosis in human A549 cells grown under 3D anchorage-independent soft-agar conditions at grown under 3D anchorage-independent soft-agar conditions assessed as induction of PARP cleavage at 1 uM in presence of 10 nM of paclitaxel incubated for 24 to 48 hrs by mesoscale assay. The format is functional, cell-based.

Assay [18] relates to MIA PaCa-2. As to conditions: Homo sapiens, 50 mg/kg.
Description: Antitumor activity against human MIAPaCa2 cells grown under 3D anchorage-independent soft-agar conditions at xenografted in BomTacNMRI-Foxn1 nu mouse assessed as inhibition of tumor regression at 50 mg/kg, po BID relative to control
Assay [19] has as its system NCI-H358. Description: Induction of apoptosis in human NCI-H358 cells grown under 3D anchorage-independent soft-agar conditions at grown under 3D anchorage-independent soft-agar conditions assessed as induction of PARP cleavage at 1 uM in presence of 125 nM of afatinib incubated for 24 hrs by mesoscale assay. The format is functional, cell-based.
Assay [20] has as its system NCI-H1792. Description: Growth inhibition of human NCI-H1792 cells grown under 3D anchorage-independent soft-agar conditions at 100 nM incubated for 14 days by alamar blue dye based assay relative to control. As to conditions: NCI-H1792, 336 h, read-out: GI. In kind it is functional.
Assay [21] deals with MIA PaCa-2. Description: Antitumor activity against human MIAPaCa2 cells grown under 3D anchorage-independent soft-agar conditions at xenografted in BomTacNMRI-Foxn1 nu mouse assessed as inhibition of tumor regression at 10 mg/kg, iv dosed in q7d regime relative to control. The format is functional, organism-based.
In assay [22] the test system is NCI-H1792. Description: Growth inhibition of human NCI-H1792 cells grown under 3D anchorage-independent soft-agar conditions at 11.1 nM incubated for 14 days by alamar blue dye based assay relative to control. In kind it is functional. Particulars: NCI-H1792, 336 h, read-out: GI.
For assay [23], the system named is A549. Description: Growth inhibition of human A549 cells grown under 3D anchorage-independent soft-agar conditions at 33.3 nM incubated for 14 days by alamar blue dye based assay relative to control. The format is functional. Particulars: A549, 336 h, read-out: GI.
In assay [24] the test system is A549. Description: Growth inhibition of human A549 cells grown under 3D anchorage-independent soft-agar conditions at 100 nM incubated for 14 days by alamar blue dye based assay relative to control. In kind it is functional. As to conditions: A549, 336 h, read-out: GI.
Assay [25] has as its system NCI-H1792. Description: Growth inhibition of human NCI-H1792 cells grown under 3D anchorage-independent soft-agar conditions at 1.23 nM incubated for 14 days by alamar blue dye based assay relative to control. In kind it is functional. Particulars: NCI-H1792, 336 h, read-out: GI.
The subject of assay [26] is A549. As to the kind of experiment: Growth inhibition of human A549 cells grown under 3D anchorage-independent soft-agar conditions at 1.23 nM incubated for 14 days by alamar blue dye based assay relative to control. The format is functional. As to conditions: A549, 336 h, read-out: GI.
Assay [27] deals with NCI-H1792. Description: Growth inhibition of human NCI-H1792 cells grown under 3D anchorage-independent soft-agar conditions at 3.7 nM incubated for 14 days by alamar blue dye based assay relative to control. The format is functional. Particulars: NCI-H1792, 336 h, read-out: GI.
Assay [28] concerns NCI-H1792. As to the kind of experiment: Growth inhibition of human NCI-H1792 cells grown under 3D anchorage-independent soft-agar conditions at 33.3 nM incubated for 14 days by alamar blue dye based assay relative to control. The format is functional. Particulars: NCI-H1792, 336 h, read-out: GI.
Assay [29] relates to A549. As to the kind of experiment: Growth inhibition of human A549 cells grown under 3D anchorage-independent soft-agar conditions at 3.7 nM incubated for 14 days by alamar blue dye based assay relative to control. The format is functional. As to conditions: A549, 336 h, read-out: GI.
Assay [30] deals with A549. As to the kind of experiment: Growth inhibition of human A549 cells grown under 3D anchorage-independent soft-agar conditions at 11.1 nM incubated for 14 days by alamar blue dye based assay relative to control. The format is functional. Particulars: A549, 336 h, read-out: GI.

The source made the active and inactive calls. The calls are words filed in the database; no cut-off is given here.

As for `COc1cc(F)c(F)c(Nc2ccc(I)cc2F)c1NS(=O)(=O)C1(C[C@H](O)CO)CC1` [REFAMETINIB], the inhibition of growth at 3.33 µM in the assay with A549 [1] stood at 209%. In addition, in the assay on A549 [2], the inhibition of growth at 0.164 µM turned out to be 212%. Besides, in the assay with A549 [3], the inhibition of growth at 0.37 µM was 11%. Moreover, in the assay with A549 [4], the inhibition of growth at 0.123 µM came out at 5%. Also, in the assay on A549 [5], the inhibition of growth at 1.11 µM turned out to be 75%.

In the case of `COC(=O)c1ccc2c(c1)NC(=O)/C2=C(\Nc1ccc(N(C)C(=O)CN2CCN(C)CC2)cc1)c1ccccc1` [NINTEDANIB], the inhibition of growth at 0.123 µM in the assay on NCI-H1792 [6] is 1%; in the assay with SW900 [8], -39%. The inhibition of growth at 1.11 µM in the assay on SW900 [7] was -18%; with NCI-H1792 [14], 26%. Further, the figures for the inhibition of growth at 0.37 µM with NCI-H1792 [9] and in the assay on SW900 [11] were 7% and -37%, respectively. In addition, the values for the inhibition of growth at 0.164 µM in the assay with NCI-H1792 [10] and with SW900 [12] were 186% and 199%, respectively. Moreover, the inhibition of growth at 3.33 µM was 19% in the assay on SW900 [13] and 86% in the assay on NCI-H1792 [15].

For the molecule `COc1cc2nc(C)nc(N[C@H](C)c3cc(N)cc(C(F)(F)F)c3)c2cc1O[C@H]1CCOC1`, in the assay with NCI-H358 [16], the result was inactive. In addition, the outcome in the assay on A549 [17] and in the assay with NCI-H358 [19] was Active. Besides, in the assay with MIA PaCa-2 [18], the inhibition entry is “inactive”.

In the case of `CC(=O)O[C@H]1C(=O)[C@@]2(C)[C@H]([C@H](OC(=O)c3ccccc3)[C@]3(O)C[C@H](OC(=O)[C@H](O)[C@@H](NC(=O)c4ccccc4)c4ccccc4)C(C)=C1C3(C)C)[C@]1(OC(C)=O)CO[C@@H]1C[C@@H]2O` [PACLITAXEL], the inhibition of growth at 0.1 µM is 183% with NCI-H1792 [20] and 114% in the assay with A549 [24]. For the same molecule, the inhibition entry in the assay with MIA PaCa-2 [21] is “inactive”. In addition, the inhibition of growth at 0.0111 µM in the assay with NCI-H1792 [22] was found to be 66%; in the assay on A549 [30] it was 86%. Besides, the figures for the inhibition of growth at 0.0333 µM in the assay with A549 [23] and with NCI-H1792 [28] were 97% and 96%, respectively. Besides, the inhibition of growth at 0.00123 µM is 7% with NCI-H1792 [25] and 12% in the assay on A549 [26]. For the same molecule, the results for the inhibition of growth at 0.0037 µM with NCI-H1792 [27] and in the assay with A549 [29] were 19% and 54%, respectively.
